Results as given in ChEMBL document CHEMBL4219035, “Synthesis of novel forskolin isoxazole derivatives with potent anti-cancer activity against breast cancer cell lines” (Bioorg Med Chem Lett, 2017).
Active and inactive are the calls of the source. No cut-off for these calls is given here.

Assays:
Type in all cases: functional, cell-based
[1] = system: BT-474; assay: Antiproliferative activity against human BT474 cells after 48 hrs by Alamar blue assay; conditions: BT-474, 48 h
[2] = system: MCF7; assay: Antiproliferative activity against human MCF7 cells after 48 hrs by Alamar blue assay; conditions: MCF7, 48 h
[3] = system: MCF7; assay: Cytotoxicity against human MCF7 cells assessed as morphological changes after 48 hrs by microscopic analysis

IC50 [1] [µM]	IC50 [2] [µM]	SMILES	Activity [3]
> 100	10	C#CCO[C@H]1CCC(C)(C)[C@@H]2[C@H](O)[C@H](OC(C)=O)[C@@]3(C)O[C@@](C)(CC)CC(=O)[C@]3(O)[C@@]12C	
> 100	5.6	C=C[C@@]1(C)CC(=O)[C@]2(O)[C@@]3(C)[C@@H](OCc4cc(-c5ccc(Cl)cc5)no4)CCC(C)(C)[C@@H]3[C@H](O)[C@H](OC(C)=O)[C@@]2(C)O1	
> 100	0.5	C=C[C@@]1(C)CC(=O)[C@]2(O)[C@@]3(C)[C@@H](OCc4cc(-c5c(OC)cc(OC)cc5OC)no4)CCC(C)(C)[C@@H]3[C@H](OC(C)=O)[C@H](O)[C@@]2(C)O1	
> 100	0.5	C=C[C@@]1(C)CC(=O)[C@]2(O)[C@@]3(C)[C@@H](OCc4cc(-c5c(OC)cc(OC)cc5OC)no4)CCC(C)(C)[C@@H]3[C@H](O)[C@H](OC(C)=O)[C@@]2(C)O1	
> 100	> 100	C#CCO[C@H]1CCC(C)(C)[C@@H]2[C@H](O)[C@H](OC(C)=O)[C@@]3(C)O[C@@](C)(C=C)CC(=O)[C@]3(O)[C@@]12C	
> 100	35.3	CC(=O)O[C@H]1[C@@H](O)[C@H]2C(C)(C)CC[C@H](OCc3cc(-c4ccccc4)no3)[C@]2(C)[C@@]2(O)C(=O)C[C@](C)(C3CC(c4ccccc4)=NO3)O[C@]12C (stereo partly specified)	
7	1.6	CC[C@@]1(C)CC(=O)[C@]2(O)[C@@]3(C)[C@@H](OCc4cc(-c5ccc(Cl)cc5)no4)CCC(C)(C)[C@@H]3[C@H](O)[C@H](OC(C)=O)[C@@]2(C)O1	
75	7	C=C[C@@]1(C)CC(=O)[C@]2(O)[C@@]3(C)[C@@H](OCc4cc(-c5ccc(C)cc5)no4)CCC(C)(C)[C@@H]3[C@H](O)[C@H](OC(C)=O)[C@@]2(C)O1	
> 100	55.3	C=C[C@@]1(C)CC(=O)[C@]2(O)[C@@]3(C)[C@@H](OCc4cc(-c5cc(OC)c(OC)c(OC)c5)no4)CCC(C)(C)[C@@H]3[C@H](O)[C@H](OC(C)=O)[C@@]2(C)O1	
29.3	0.5	CC[C@@]1(C)CC(=O)[C@]2(O)[C@@]3(C)[C@@H](OCc4cc(-c5cc(OC)c(OC)c(OC)c5)no4)CCC(C)(C)[C@@H]3[C@H](O)[C@H](OC(C)=O)[C@@]2(C)O1	
> 100	1.1	C=C[C@@]1(C)CC(=O)[C@]2(O)[C@@]3(C)[C@@H](OCc4cc(-c5ccc(OC)c(OC)c5)no4)CCC(C)(C)[C@@H]3[C@H](O)[C@H](OC(C)=O)[C@@]2(C)O1	
> 100	4.4	C=C[C@@]1(C)CC(=O)[C@]2(O)[C@@]3(C)[C@@H](OCc4cc(-c5cc(OC)c(OC)c(OC)c5)no4)CCC(C)(C)[C@@H]3[C@H](OC(C)=O)[C@H](O)[C@@]2(C)O1	
79.6	52.6	CC(=O)O[C@H]1[C@@H](O)[C@H]2C(C)(C)CC[C@H](OCc3cc(-c4ccc(OCc5ccccc5)cc4)no3)[C@]2(C)[C@@]2(O)C(=O)C[C@](C)(C3CC(c4ccc(OCc5ccccc5)cc4)=NO3)O[C@]12C (stereo partly specified)	
> 100	63.3	C=C[C@@]1(C)CC(=O)[C@]2(O)[C@@]3(C)[C@@H](O)CCC(C)(C)[C@@H]3[C@H](O)[C@H](OC(C)=O)[C@@]2(C)O1 [COLFORSIN]	Active
> 100	57.3	C=C[C@@]1(C)CC(=O)[C@]2(O)[C@@]3(C)[C@@H](OCc4cc(-c5ccc(OC)cc5)no4)CCC(C)(C)[C@@H]3[C@H](OC(C)=O)[C@H](O)[C@@]2(C)O1	
2.1	0.5	CC[C@@]1(C)CC(=O)[C@]2(O)[C@@]3(C)[C@@H](OCc4cc(-c5ccc(OC)cc5)no4)CCC(C)(C)[C@@H]3[C@H](O)[C@H](OC(C)=O)[C@@]2(C)O1	Active
28.3	12	C=C[C@@]1(C)CC(=O)[C@]2(O)[C@@]3(C)[C@@H](OCc4cc(-c5ccc(OC)c(OC)c5)no4)CCC(C)(C)[C@@H]3[C@H](OC(C)=O)[C@H](O)[C@@]2(C)O1	

IC50 [1] [µM]	IC50 [2] [µM]	SMILES	Activity [3]
> 100	0.5	COc1ccc(C2=NOC([C@@]3(C)CC(=O)[C@]4(O)[C@@]5(C)[C@@H](OCc6cc(-c7ccc(OC)c(OC)c7)no6)CCC(C)(C)[C@@H]5[C@H](O)[C@H](OC(C)=O)[C@@]4(C)O3)C2)cc1OC (stereo partly specified)	
0.5	0.5	C=C[C@@]1(C)CC(=O)[C@]2(O)[C@@]3(C)[C@@H](OCc4cc(-c5ccc(OCc6ccccc6)cc5)no4)CCC(C)(C)[C@@H]3[C@H](O)[C@H](OC(C)=O)[C@@]2(C)O1	Active
> 100	30	C#CCO[C@H]1CCC(C)(C)[C@@H]2[C@H](OC(C)=O)[C@H](O)[C@@]3(C)O[C@@](C)(C=C)CC(=O)[C@]3(O)[C@@]12C	
1.3	3.3	CC(=O)O[C@H]1[C@H]2C(C)(C)CC[C@H](OCc3cc(-c4ccc(OCc5ccccc5)cc4)no3)[C@]2(C)[C@@]2(O)C(=O)C[C@](C)(C3CC(c4ccc(OCc5ccccc5)cc4)=NO3)O[C@]2(C)[C@H]1O (stereo partly specified)	
> 100	9.6	CC[C@@]1(C)CC(=O)[C@]2(O)[C@@]3(C)[C@@H](OCc4cc(-c5ccc(OC)c(OC)c5)no4)CCC(C)(C)[C@@H]3[C@H](O)[C@H](OC(C)=O)[C@@]2(C)O1	
4.3	3	COc1ccc(C2=NOC([C@@]3(C)CC(=O)[C@]4(O)[C@@]5(C)[C@@H](OCc6cc(-c7ccc(OC)cc7)no6)CCC(C)(C)[C@@H]5[C@H](O)[C@H](OC(C)=O)[C@@]4(C)O3)C2)cc1 (stereo partly specified)	
> 100	84.6	C=C[C@@]1(C)CC(=O)[C@]2(O)[C@@]3(C)[C@@H](OCc4cc(-c5ccc(OCc6ccccc6)cc5)no4)CCC(C)(C)[C@@H]3[C@H](OC(C)=O)[C@H](O)[C@@]2(C)O1	
> 100	32	C=C[C@@]1(C)CC(=O)[C@]2(O)[C@@]3(C)[C@@H](OCc4cc(-c5ccc(C)cc5)no4)CCC(C)(C)[C@@H]3[C@H](OC(C)=O)[C@H](O)[C@@]2(C)O1	
> 100	4	C=C[C@@]1(C)CC(=O)[C@]2(O)[C@@]3(C)[C@@H](OCc4cc(-c5ccc(Cl)cc5)no4)CCC(C)(C)[C@@H]3[C@H](OC(C)=O)[C@H](O)[C@@]2(C)O1	
> 100	5.6	CC(=O)O[C@H]1[C@@H](O)[C@H]2C(C)(C)CC[C@H](OCc3cc(-c4ccc(C)cc4)no3)[C@]2(C)[C@@]2(O)C(=O)C[C@](C)(C3CC(c4ccc(C)cc4)=NO3)O[C@]12C (stereo partly specified)	
> 100	79.3	COc1ccc(C2=NOC([C@@]3(C)CC(=O)[C@]4(O)[C@@]5(C)[C@@H](OCc6cc(-c7ccc(OC)cc7)no6)CCC(C)(C)[C@@H]5[C@H](OC(C)=O)[C@H](O)[C@@]4(C)O3)C2)cc1 (stereo partly specified)	
> 100	59	CC(=O)O[C@H]1[C@H]2C(C)(C)CC[C@H](OCc3cc(-c4ccc(C)cc4)no3)[C@]2(C)[C@@]2(O)C(=O)C[C@](C)(C3CC(c4ccc(C)cc4)=NO3)O[C@]2(C)[C@H]1O (stereo partly specified)	
9.1	2.6	CC[C@@]1(C)CC(=O)[C@]2(O)[C@@]3(C)[C@@H](OCc4cc(-c5ccccc5)no4)CCC(C)(C)[C@@H]3[C@H](O)[C@H](OC(C)=O)[C@@]2(C)O1	
4	0.5	C=C[C@@]1(C)CC(=O)[C@]2(O)[C@@]3(C)[C@@H](OCc4cc(-c5ccc(OC)cc5)no4)CCC(C)(C)[C@@H]3[C@H](O)[C@H](OC(C)=O)[C@@]2(C)O1	Active
> 100	0.5	COc1ccc(C2=NOC([C@@]3(C)CC(=O)[C@]4(O)[C@@]5(C)[C@@H](OCc6cc(-c7ccc(OC)c(OC)c7)no6)CCC(C)(C)[C@@H]5[C@H](OC(C)=O)[C@H](O)[C@@]4(C)O3)C2)cc1OC (stereo partly specified)	
5	0.5	C=C[C@@]1(C)CC(=O)[C@]2(O)[C@@]3(C)[C@@H](OCc4cc(-c5ccccc5)no4)CCC(C)(C)[C@@H]3[C@H](O)[C@H](OC(C)=O)[C@@]2(C)O1	Active
